Reference: US20250303006A1, “BIOCOMPATIBLE ANTISEPTIC COMPOSITION CONTAINING 9-HYDROXYCALABAXANTHONE AND/OR RELATED XANTHONES” (UNIVERSITAT DE LES ILLES BALEARS, priority 2022, published 2025)

System: S. epidermidis
Assay: S. epidermidis culture and proliferation assay
Format: cell-based, Staphylococcus epidermidis
Description: S. epidermidis 4814 (CECT, Valencia, Spain) were grown from frozen stocks in Luria-Bertani (LB) broth (Scharlab, Sentmenat), at 37° C. under aerobic conditions in an orbital shaker (180 rpm). After an overnight incubation, 1 mL of bacterial suspensions were incubated with different concentrations of HCX (0.003, 0.002, 0.001, 0.0002, 0.00002%) for 24 hours at 37° C. under aerobic conditions in an orbital shaker (180 rpm). Bacterial suspension without treatment served as negative control, and CHX at 0.001% served as positive control for bacterial growth inhibition. The optical density (OD) was measured at 600 nm at 0 h, 10 h and 24 h to determine bacterial proliferation (PowerWave Ht, Biotek instruments, Winooski, VT, USA). Bacterial growth rate (μ) was calculated during the exponential growth phase following the equation ln ODt−ln OD0=μ×(t−t0). Live/Dead ratio of bacteria was determined using the LIVE/DEAD BacLight bacterial viability kit (Invitrogen, Thermo Fisher Scientific, Waltham, MA, USA), following manufacturer's instructions. The assays were carried out in triplicate, with two replicates at each condition (n=6). […]

## COc1c(O)cc2oc3cc4c(c(O)c3c(=O)c2c1CC=C(C)C)C=CC(C)(C)O4 [HCX, 9-hydroxycalabaxanthone]
0.001% HCX, 10 h
  bacteria eliminated: 100%
0.003% HCX, 24 h
  bacteria eliminated: 80%
